According to ChEMBL document CHEMBL3390848, “Affinity selection and sequence-activity relationships of HIV-1 membrane fusion inhibitors directed at the drug-resistant variants” (Medchemcomm, 2010):
Residues, ends and D or L forms follow the SMILES beside them.

Key:
[1] = tested on: Human immunodeficiency virus 1; assay: Binding affinity to HIV1 His-tagged N-terminal heptad repeat of envelope glycoprotein gp41 assessed as recovery of N36-drug complex at 10 uM after 2 hrs by LC-MS analysis
[2] = tested on: Human immunodeficiency virus 1; assay: Binding affinity to HIV1 His-tagged N-terminal heptad repeat of envelope glycoprotein gp41 assessed as recovery of N36-drug complex at 6 uM after 2 hrs by LC-MS analysis
[3] = tested on: Human immunodeficiency virus 1; assay: Binding affinity to HIV1 His-tagged N-terminal heptad repeat of envelope glycoprotein gp41 assessed as recovery of N36-drug complex at 1 uM after 2 hrs by LC-MS analysis
[4] = tested on: Human immunodeficiency virus 1; assay: Binding affinity to HIV1 His-tagged N-terminal heptad repeat of envelope glycoprotein gp41 assessed as recovery of N36-drug complex at 0.6 uM after 2 hrs by LC-MS analysis
[5] = tested on: Human immunodeficiency virus 1; assay: Antiviral activity against HIV1 NL4-3 harboring gp41 D36G mutant infected in human HeLa cells expressing CD4-LTR-beta-gal assessed as inhibition of viral replication after 48 hrs by MAGI assay; assay type: functional, organism-based
[6] = tested on: Human immunodeficiency virus 1; assay: Thermal stability of HIV1 envelope glycoprotein gp41 His-tagged N-terminal heptad repeat N36-drug complex assessed as thermal unfolding transition state by measuring molar ellipticity at 4 to 90 degC by circular dichroic spectra analysis

Compound | Activity [1] [%] | Activity [2] [%] | Activity [3] [%] | Activity [4] [%] | EC50 [5] [nM] | Tm [6] [°C]
CC[C@H](C)[C@H](NC(=O)[C@H](CCCCN)NC(=O)[C@H](CCCCN)NC(=O)[C@H](CC(=O)O)NC(=O)[C@H](Cc1c[nH]c2ccccc12)NC(=O)[C@H](CCC(=O)O)NC(=O)[C@H](CCC(=O)O)NC(=O)[C@H](Cc1c[nH]c2ccccc12)NC(C)=O)C(=O)N[C@@H](CCC(=O)O)C(=O)N[C@@H](CCC(=O)O)C(=O)N[C@@H](Cc1ccc(O)cc1)C(=O)N[C@H](C(=O)N[C@@H](CCCCN)C(=O)N[C@@H](CCCCN)C(=O)N[C@H](C(=O)N[C@@H](CCC(=O)O)C(=O)N[C@@H](CCC(=O)O)C(=O)N[C@@H](CC(C)C)C(=O)N[C@H](C(=O)N[C@@H](CCCCN)C(=O)N[C@@H](CCCCN)C(=O)N[C@H](C(=O)N[C@@H](CCC(=O)O)C(=O)N[C@@H](CCC(=O)O)C(=O)N[C@@H](CCC(N)=O)C(=O)N[C@@H](CCC(N)=O)C(=O)N[C@@H](CCCCN)C(=O)N[C@@H](CCCCN)C(=O)N[C@@H](CC(N)=O)C(=O)N[C@@H](CCC(=O)O)C(=O)N[C@@H](CCC(=O)O)C(=O)N[C@@H](CCC(=O)O)C(=O)N[C@@H](CC(C)C)C(=O)N[C@@H](CCCCN)C(=O)N[C@@H](CCCCN)C(N)=O)[C@@H](C)CC)[C@@H](C)CC)[C@@H](C)CC)[C@@H](C)O (Ac-WEEWDKKIEEYTKKIEELIKKIEEQQKKNEEELKK-NH2) | 4.7 | 7.6 | 11.3 | 6.9 | 1.3 | 84.6
CC[C@H](C)[C@H](NC(=O)[C@H](CC(C)C)NC(=O)[C@H](CCC(=O)O)NC(=O)[C@H](CCC(=O)O)NC(=O)[C@@H](NC(=O)[C@H](CCCCN)NC(=O)[C@H](CCCCN)NC(=O)[C@@H](NC(=O)[C@H](Cc1ccc(O)cc1)NC(=O)[C@H](CCC(=O)O)NC(=O)[C@H](CCC(=O)O)NC(=O)[C@@H](NC(=O)[C@H](CCCCN)NC(=O)[C@H](CCCCN)NC(=O)[C@H](CC(=O)O)NC(=O)[C@H](Cc1c[nH]c2ccccc12)NC(=O)[C@H](CCC(=O)O)NC(=O)[C@H](CCC(=O)O)NC(=O)[C@H](Cc1c[nH]c2ccccc12)NC(C)=O)[C@@H](C)CC)[C@@H](C)O)[C@@H](C)CC)C(=O)N[C@@H](CCCCN)C(=O)N[C@@H](CCCCN)C(=O)N[C@@H](CCCCN)C(=O)N[C@@H](CCC(=O)O)C(=O)N[C@@H](CCC(=O)O)C(=O)N[C@@H](CCC(N)=O)C(=O)N[C@@H](CCC(N)=O)C(=O)N[C@@H](CCCCN)C(=O)N[C@@H](CCCCN)C(=O)N[C@@H](CC(N)=O)C(=O)N[C@@H](CCC(=O)O)C(=O)N[C@@H](CCC(=O)O)C(=O)N[C@@H](CCC(=O)O)C(=O)N[C@@H](CC(C)C)C(=O)N[C@@H](CCCCN)C(=O)N[C@@H](CCCCN)C(N)=O (Ac-WEEWDKKIEEYTKKIEELIKKKEEQQKKNEEELKK-NH2) | 0.2 | 0.1 | 0 | 3.6 | 8.2 | 53.5
CC[C@H](C)[C@H](NC(=O)[C@H](CC(C)C)NC(=O)[C@H](CCC(=O)O)NC(=O)[C@H](CCC(=O)O)NC(=O)[C@@H](NC(=O)[C@H](CCCCN)NC(=O)[C@H](CCCCN)NC(=O)[C@@H](NC(=O)[C@H](Cc1ccc(O)cc1)NC(=O)[C@H](CCC(=O)O)NC(=O)[C@H](CCC(=O)O)NC(=O)[C@@H](NC(=O)[C@H](CCCCN)NC(=O)[C@H](CCCCN)NC(=O)[C@H](CC(=O)O)NC(=O)[C@H](Cc1c[nH]c2ccccc12)NC(=O)[C@H](CCC(=O)O)NC(=O)[C@H](CCC(=O)O)NC(=O)[C@H](Cc1c[nH]c2ccccc12)NC(C)=O)[C@@H](C)CC)[C@@H](C)O)[C@@H](C)CC)C(=O)N[C@@H](CCCCN)C(=O)N[C@@H](CCCCN)C(=O)N[C@@H](CCSC)C(=O)N[C@@H](CCC(=O)O)C(=O)N[C@@H](CCC(=O)O)C(=O)N[C@@H](CCC(N)=O)C(=O)N[C@@H](CCC(N)=O)C(=O)N[C@@H](CCCCN)C(=O)N[C@@H](CCCCN)C(=O)N[C@@H](CC(N)=O)C(=O)N[C@@H](CCC(=O)O)C(=O)N[C@@H](CCC(=O)O)C(=O)N[C@@H](CCC(=O)O)C(=O)N[C@@H](CC(C)C)C(=O)N[C@@H](CCCCN)C(=O)N[C@@H](CCCCN)C(N)=O (Ac-WEEWDKKIEEYTKKIEELIKKMEEQQKKNEEELKK-NH2) | 8.9 | 13.3 | 12.5 | 6.8 | 0.68 | 84.1
CC[C@H](C)[C@H](NC(=O)[C@H](CC(C)C)NC(=O)[C@H](CCC(=O)O)NC(=O)[C@H](CCC(=O)O)NC(=O)[C@@H](NC(=O)[C@H](CCCCN)NC(=O)[C@H](CCCCN)NC(=O)[C@@H](NC(=O)[C@H](Cc1ccc(O)cc1)NC(=O)[C@H](CCC(=O)O)NC(=O)[C@H](CCC(=O)O)NC(=O)[C@@H](NC(=O)[C@H](CCCCN)NC(=O)[C@H](CCCCN)NC(=O)[C@H](CC(=O)O)NC(=O)[C@H](Cc1c[nH]c2ccccc12)NC(=O)[C@H](CCC(=O)O)NC(=O)[C@H](CCC(=O)O)NC(=O)[C@H](Cc1c[nH]c2ccccc12)NC(C)=O)[C@@H](C)CC)[C@@H](C)O)[C@@H](C)CC)C(=O)N[C@@H](CCCCN)C(=O)N[C@@H](CCCCN)C(=O)N[C@@H](CC(N)=O)C(=O)N[C@@H](CCC(=O)O)C(=O)N[C@@H](CCC(=O)O)C(=O)N[C@@H](CCC(N)=O)C(=O)N[C@@H](CCC(N)=O)C(=O)N[C@@H](CCCCN)C(=O)N[C@@H](CCCCN)C(=O)N[C@@H](CC(N)=O)C(=O)N[C@@H](CCC(=O)O)C(=O)N[C@@H](CCC(=O)O)C(=O)N[C@@H](CCC(=O)O)C(=O)N[C@@H](CC(C)C)C(=O)N[C@@H](CCCCN)C(=O)N[C@@H](CCCCN)C(N)=O (Ac-WEEWDKKIEEYTKKIEELIKKNEEQQKKNEEELKK-NH2) | 1.1 | 0.5 | 4.3 | 6.4 | 2.2 | 69
CC[C@H](C)[C@H](NC(=O)[C@H](CC(C)C)NC(=O)[C@H](CCC(=O)O)NC(=O)[C@H](CCC(=O)O)NC(=O)[C@@H](NC(=O)[C@H](CCCCN)NC(=O)[C@H](CCCCN)NC(=O)[C@@H](NC(=O)[C@H](Cc1ccc(O)cc1)NC(=O)[C@H](CCC(=O)O)NC(=O)[C@H](CCC(=O)O)NC(=O)[C@@H](NC(=O)[C@H](CCCCN)NC(=O)[C@H](CCCCN)NC(=O)[C@H](CC(=O)O)NC(=O)[C@H](Cc1c[nH]c2ccccc12)NC(=O)[C@H](CCC(=O)O)NC(=O)[C@H](CCC(=O)O)NC(=O)[C@H](Cc1c[nH]c2ccccc12)NC(C)=O)[C@@H](C)CC)[C@@H](C)O)[C@@H](C)CC)C(=O)N[C@@H](CCCCN)C(=O)N[C@@H](CCCCN)C(=O)N[C@@H](CCC(N)=O)C(=O)N[C@@H](CCC(=O)O)C(=O)N[C@@H](CCC(=O)O)C(=O)N[C@@H](CCC(N)=O)C(=O)N[C@@H](CCC(N)=O)C(=O)N[C@@H](CCCCN)C(=O)N[C@@H](CCCCN)C(=O)N[C@@H](CC(N)=O)C(=O)N[C@@H](CCC(=O)O)C(=O)N[C@@H](CCC(=O)O)C(=O)N[C@@H](CCC(=O)O)C(=O)N[C@@H](CC(C)C)C(=O)N[C@@H](CCCCN)C(=O)N[C@@H](CCCCN)C(N)=O (Ac-WEEWDKKIEEYTKKIEELIKKQEEQQKKNEEELKK-NH2) | 0.9 | 0.5 | 2.1 | 6.1 | 2.4 | 65.9
CC[C@H](C)[C@H](NC(=O)[C@H](CC(C)C)NC(=O)[C@H](CCC(=O)O)NC(=O)[C@H](CCC(=O)O)NC(=O)[C@@H](NC(=O)[C@H](CCCCN)NC(=O)[C@H](CCCCN)NC(=O)[C@@H](NC(=O)[C@H](Cc1ccc(O)cc1)NC(=O)[C@H](CCC(=O)O)NC(=O)[C@H](CCC(=O)O)NC(=O)[C@@H](NC(=O)[C@H](CCCCN)NC(=O)[C@H](CCCCN)NC(=O)[C@H](CC(=O)O)NC(=O)[C@H](Cc1c[nH]c2ccccc12)NC(=O)[C@H](CCC(=O)O)NC(=O)[C@H](CCC(=O)O)NC(=O)[C@H](Cc1c[nH]c2ccccc12)NC(C)=O)[C@@H](C)CC)[C@@H](C)O)[C@@H](C)CC)C(=O)N[C@@H](CCCCN)C(=O)N[C@@H](CCCCN)C(=O)N[C@@H](CCCNC(=N)N)C(=O)N[C@@H](CCC(=O)O)C(=O)N[C@@H](CCC(=O)O)C(=O)N[C@@H](CCC(N)=O)C(=O)N[C@@H](CCC(N)=O)C(=O)N[C@@H](CCCCN)C(=O)N[C@@H](CCCCN)C(=O)N[C@@H](CC(N)=O)C(=O)N[C@@H](CCC(=O)O)C(=O)N[C@@H](CCC(=O)O)C(=O)N[C@@H](CCC(=O)O)C(=O)N[C@@H](CC(C)C)C(=O)N[C@@H](CCCCN)C(=O)N[C@@H](CCCCN)C(N)=O (Ac-WEEWDKKIEEYTKKIEELIKKREEQQKKNEEELKK-NH2) | 0.3 | 0.1 | 0 | 2.5 | 280 | 52.3
CC[C@H](C)[C@H](NC(=O)[C@H](CCCCN)NC(=O)[C@H](CCCCN)NC(=O)[C@H](CC(=O)O)NC(=O)[C@H](Cc1c[nH]c2ccccc12)NC(=O)[C@H](CCC(=O)O)NC(=O)[C@H](CCC(=O)O)NC(=O)[C@H](Cc1c[nH]c2ccccc12)NC(C)=O)C(=O)N[C@@H](CCC(=O)O)C(=O)N[C@@H](CCC(=O)O)C(=O)N[C@@H](Cc1ccc(O)cc1)C(=O)N[C@H](C(=O)N[C@@H](CCCCN)C(=O)N[C@@H](CCCCN)C(=O)N[C@H](C(=O)N[C@@H](CCC(=O)O)C(=O)N[C@@H](CCC(=O)O)C(=O)N[C@@H](CC(C)C)C(=O)N[C@H](C(=O)N[C@@H](CCCCN)C(=O)N[C@@H](CCCCN)C(=O)N[C@H](C(=O)N[C@@H](CCC(=O)O)C(=O)N[C@@H](CCC(=O)O)C(=O)N[C@@H](CCC(N)=O)C(=O)N[C@@H](CCC(N)=O)C(=O)N[C@@H](CCCCN)C(=O)N[C@@H](CCCCN)C(=O)N[C@@H](CC(N)=O)C(=O)N[C@@H](CCC(=O)O)C(=O)N[C@@H](CCC(=O)O)C(=O)N[C@@H](CCC(=O)O)C(=O)N[C@@H](CC(C)C)C(=O)N[C@@H](CCCCN)C(=O)N[C@@H](CCCCN)C(N)=O)C(C)C)[C@@H](C)CC)[C@@H](C)CC)[C@@H](C)O (Ac-WEEWDKKIEEYTKKIEELIKKVEEQQKKNEEELKK-NH2) | 2.8 | 6 | 12.1 | 7 | 1.9 | 79.9
